The results in this text go back to ChEMBL document CHEMBL1201862, “PubChem BioAssay data set” (2004).

Assay [1] addresses ATP-dependent molecular chaperone HSP82 (Candida albicans (strain WO-1) (Yeast), UniProt C4YTQ8). Nature of the assay: loss of DOC-induced GRE-beta-galactosidase reporter signal, dose response, Hsp90 inhibitor project, S. cerevisiae, luminescence (AID 2400).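 Also: beta-galactosidase luminescence from glucocorticoid response element reporter as proxy for Hsp90 function; inhibitor potency where signal loss means Hsp90 inhibition.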 The class given is functional, cell-based.
Assay [2] is described as follows: C. albicans growth with fluconazole, confirmation, fluorescence, retest (AID 2467). The class given is functional, cell-based.
Assay [3] concerns the target T1, Serine/threonine-protein phosphatase (Candida dubliniensis (strain CD36 / CBS 7987 / NCPF 3949 / NRRLY-17841) (Yeast), UniProt B9W6M3).
T1 sequence (B9W6M3 whole entry): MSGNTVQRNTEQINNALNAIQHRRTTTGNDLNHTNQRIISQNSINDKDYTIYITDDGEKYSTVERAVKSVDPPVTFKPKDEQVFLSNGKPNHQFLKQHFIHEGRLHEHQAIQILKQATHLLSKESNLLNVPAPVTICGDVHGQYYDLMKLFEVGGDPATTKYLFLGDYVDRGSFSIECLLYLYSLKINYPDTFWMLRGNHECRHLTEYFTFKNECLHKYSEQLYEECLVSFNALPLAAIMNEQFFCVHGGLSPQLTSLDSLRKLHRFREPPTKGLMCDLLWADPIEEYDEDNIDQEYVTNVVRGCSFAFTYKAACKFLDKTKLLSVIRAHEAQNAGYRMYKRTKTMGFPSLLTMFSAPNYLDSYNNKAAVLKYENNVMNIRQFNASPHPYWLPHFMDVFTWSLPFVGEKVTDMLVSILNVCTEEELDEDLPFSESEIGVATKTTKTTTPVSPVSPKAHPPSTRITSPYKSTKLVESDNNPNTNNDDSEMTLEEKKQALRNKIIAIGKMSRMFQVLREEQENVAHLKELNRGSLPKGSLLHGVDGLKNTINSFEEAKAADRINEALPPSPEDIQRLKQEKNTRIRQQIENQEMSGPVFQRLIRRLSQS
Nature of the assay: calcineurin pathway inhibitors in yeast reporter, dose response, S. cerevisiae, CDRE-lacZ, luminescence, secondary (AID 2388).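 Also: yeast reporter cells carrying a calcineurin-responsive lacZ construct stimulated with calcium chloride; luminescent beta-galactosidase reporter signal in whole cells rather than isolated phosphatase activity; potency for inhibition where a drop in reporter signal means calcineurin blockade.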 The class given is functional, cell-based.

Assay [4] can be described thus: NIH-3T3 fibroblast cytotoxicity, dose response, cytotoxicity control, cell-based, fluorescence, Alamar Blue, secondary assay (AID 2327).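 Also: NIH-3T3 mouse fibroblasts cultured with fluconazole at 8 µg/mL.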 The class given is functional. (Alamar Blue is a resazurin reagent that responds to reducing activity.)
Assay [5] has as its target T2, Apoptotic protease-activating factor 1 (Homo sapiens, UniProt O14727).
T2 sequence (O14727 whole entry): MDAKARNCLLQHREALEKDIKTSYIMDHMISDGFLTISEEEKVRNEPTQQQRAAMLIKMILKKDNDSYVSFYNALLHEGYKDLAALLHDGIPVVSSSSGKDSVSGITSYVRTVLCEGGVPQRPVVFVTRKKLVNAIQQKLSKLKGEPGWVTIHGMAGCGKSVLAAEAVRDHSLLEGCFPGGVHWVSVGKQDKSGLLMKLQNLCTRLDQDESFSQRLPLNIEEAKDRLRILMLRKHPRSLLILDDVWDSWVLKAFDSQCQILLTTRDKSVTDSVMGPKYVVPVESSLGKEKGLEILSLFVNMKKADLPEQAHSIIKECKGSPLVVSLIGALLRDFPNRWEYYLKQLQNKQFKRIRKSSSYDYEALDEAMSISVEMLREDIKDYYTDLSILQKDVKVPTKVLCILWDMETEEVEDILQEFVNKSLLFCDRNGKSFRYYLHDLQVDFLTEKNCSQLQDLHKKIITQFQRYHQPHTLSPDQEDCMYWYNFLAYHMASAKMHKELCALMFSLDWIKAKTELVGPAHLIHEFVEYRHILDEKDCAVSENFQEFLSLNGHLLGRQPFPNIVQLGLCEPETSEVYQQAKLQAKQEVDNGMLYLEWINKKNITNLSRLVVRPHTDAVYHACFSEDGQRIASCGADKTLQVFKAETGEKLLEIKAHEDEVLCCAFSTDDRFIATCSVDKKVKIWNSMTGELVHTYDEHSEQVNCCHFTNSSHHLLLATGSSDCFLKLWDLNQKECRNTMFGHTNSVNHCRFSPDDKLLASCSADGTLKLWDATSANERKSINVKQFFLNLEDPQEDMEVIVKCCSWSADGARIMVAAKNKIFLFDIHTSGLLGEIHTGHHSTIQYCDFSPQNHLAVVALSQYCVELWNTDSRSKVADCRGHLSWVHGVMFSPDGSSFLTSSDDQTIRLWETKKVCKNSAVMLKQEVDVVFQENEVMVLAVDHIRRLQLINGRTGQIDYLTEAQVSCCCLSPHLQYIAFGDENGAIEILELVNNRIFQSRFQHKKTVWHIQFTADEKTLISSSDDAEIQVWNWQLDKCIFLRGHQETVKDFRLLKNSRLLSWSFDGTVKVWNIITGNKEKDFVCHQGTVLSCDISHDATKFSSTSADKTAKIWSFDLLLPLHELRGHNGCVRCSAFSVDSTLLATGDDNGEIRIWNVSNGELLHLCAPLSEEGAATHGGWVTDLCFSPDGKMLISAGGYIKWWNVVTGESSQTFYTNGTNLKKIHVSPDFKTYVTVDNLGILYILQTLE
Format: functional.

For another assay, the system named is Vero. Nature of the assay: Vero cell cytotoxicity, cytotoxicity control for flavivirus capping enzyme inhibitors (AID 588742). The class given is functional. To be noted: Chlorocebus sabaeus.
In a further assay the target is Genome polyprotein (dengue virus type 2, UniProt P29990). The assay is described as follows: Dengue-2 NS5 methyltransferase inhibitors, primary screen, biochemical, confirmation dose response (AID 588689). Format: functional.
Assay [6] is described as follows: THP-1 cell cytotoxicity, dose response, cytotoxicity control for Vif-APOBEC3G degradation inhibitor project, THP-1 cells (AID 1117359). Format: functional. To be noted: Human immunodeficiency virus 1, THP-1.
The subject of assay [7] is BJ. The assay is described as follows: cells. Format: functional, cell-based. To be noted: Homo sapiens.
Assay [8] can be described thus: cytotoxicity toward DRD oncogenic fibroblasts, dose response, cell-based, non-viral oncogenic, luminescence (AID 1934). The following applies: Homo sapiens. Format: functional.
For assay [9], the system named is BJ. The assay is described as follows: cytotoxicity toward Ras-transformed BJeLR fibroblasts, dose response, cell-based, alamar blue fluorescence, cherrypicked samples (AID 2631).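 Also: confirmatory dose-response assay in RAS-dependent BJ fibroblasts engineered with TERT, LT and ST, with cytotoxicity read by fluorescence.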 The class given is functional. The following applies: Homo sapiens.
For assay [10], the system named is BJ. Nature of the assay: cytotoxicity toward BJ-TERT fibroblasts, dose response, cell-based, RAS-independent, luminescence (AID 1933). Format: functional. The following applies: Homo sapiens.
Assay [11] relates to BJ. Nature of the assay: cytotoxicity toward BJ-TERT-LT-ST fibroblasts, dose response, cell-based, RAS-independent, luminescence (AID 1935).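 Also: BJ fibroblasts immortalized with TERT plus LT and ST oncogenes.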 The class given is functional. To be noted: Homo sapiens.
Assay [12] can be described thus: Luminescence Cell-Based Dose Confirmation HTS to Identify Inhibitors of Platelet Dense Granule Release. [Related pubchem assays: 1663 (Primary HTS), 1678 (Summary of Project)]. Format: functional.
Assay [13] has as its target T3, Nuclear receptor subfamily 0 group B member 1 (Homo sapiens, UniProt P51843).
T3 sequence (P51843 whole entry): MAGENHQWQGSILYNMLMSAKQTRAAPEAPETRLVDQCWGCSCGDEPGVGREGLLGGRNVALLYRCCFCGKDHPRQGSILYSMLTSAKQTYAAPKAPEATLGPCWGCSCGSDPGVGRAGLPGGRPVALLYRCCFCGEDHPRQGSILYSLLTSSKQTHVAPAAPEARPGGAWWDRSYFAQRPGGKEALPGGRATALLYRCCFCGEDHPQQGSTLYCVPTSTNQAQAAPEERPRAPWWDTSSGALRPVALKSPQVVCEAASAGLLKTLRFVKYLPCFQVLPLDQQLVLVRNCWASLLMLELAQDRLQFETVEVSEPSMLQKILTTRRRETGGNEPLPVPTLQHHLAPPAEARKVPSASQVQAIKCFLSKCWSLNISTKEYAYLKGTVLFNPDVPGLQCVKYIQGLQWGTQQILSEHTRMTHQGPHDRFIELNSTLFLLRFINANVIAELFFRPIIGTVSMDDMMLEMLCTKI
The assay is described as follows: Luminescence-based cell-based high throughput dose response assay for inhibitors of the orphan nuclear receptor subfamily 0, group B, member 1 (DAX1; NR0B1). [Related pubchem assays (depositor defined):AID504766, AID504790]. Format: functional.

Assay [14] deals with Luciferin 4-monooxygenase (Photinus pyralis, UniProt P08659). The assay is described as follows: firefly luciferase enzyme inhibitors, dose response, biochemical, luminescence (AID 1891).
The subject of the next assay is HEK293. The assay is described as follows: cells. The class given is functional, cell-based. The following applies: Homo sapiens.

Active and inactive are the calls of the source. Rule as the data show it, for most assays here: actives have a measured EC50 and inactives only a lower limit. A value given as a limit tells only on which side of the number the result lay.

Sequence of ATP-dependent molecular chaperone HSP82 (C4YTQ8 whole entry): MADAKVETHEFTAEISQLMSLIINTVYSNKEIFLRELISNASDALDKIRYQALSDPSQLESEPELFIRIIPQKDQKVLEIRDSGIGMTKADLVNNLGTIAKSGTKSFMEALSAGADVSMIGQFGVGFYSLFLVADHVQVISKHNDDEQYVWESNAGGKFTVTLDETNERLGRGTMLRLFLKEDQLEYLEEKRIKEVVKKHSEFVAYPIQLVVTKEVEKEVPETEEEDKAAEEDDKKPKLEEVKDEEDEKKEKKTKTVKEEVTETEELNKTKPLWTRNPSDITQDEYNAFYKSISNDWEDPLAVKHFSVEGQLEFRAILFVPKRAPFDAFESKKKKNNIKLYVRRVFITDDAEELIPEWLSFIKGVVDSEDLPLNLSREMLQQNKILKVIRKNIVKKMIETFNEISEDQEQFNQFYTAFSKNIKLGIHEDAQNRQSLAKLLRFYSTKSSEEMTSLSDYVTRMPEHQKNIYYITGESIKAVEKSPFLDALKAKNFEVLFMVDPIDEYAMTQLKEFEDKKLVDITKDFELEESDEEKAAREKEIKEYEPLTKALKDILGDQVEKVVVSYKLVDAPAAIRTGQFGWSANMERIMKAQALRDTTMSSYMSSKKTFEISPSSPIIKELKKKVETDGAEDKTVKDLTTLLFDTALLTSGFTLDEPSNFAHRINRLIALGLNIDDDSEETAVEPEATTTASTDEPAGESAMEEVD
Sequence of Genome polyprotein (P29990 2492-3391 limits assumed): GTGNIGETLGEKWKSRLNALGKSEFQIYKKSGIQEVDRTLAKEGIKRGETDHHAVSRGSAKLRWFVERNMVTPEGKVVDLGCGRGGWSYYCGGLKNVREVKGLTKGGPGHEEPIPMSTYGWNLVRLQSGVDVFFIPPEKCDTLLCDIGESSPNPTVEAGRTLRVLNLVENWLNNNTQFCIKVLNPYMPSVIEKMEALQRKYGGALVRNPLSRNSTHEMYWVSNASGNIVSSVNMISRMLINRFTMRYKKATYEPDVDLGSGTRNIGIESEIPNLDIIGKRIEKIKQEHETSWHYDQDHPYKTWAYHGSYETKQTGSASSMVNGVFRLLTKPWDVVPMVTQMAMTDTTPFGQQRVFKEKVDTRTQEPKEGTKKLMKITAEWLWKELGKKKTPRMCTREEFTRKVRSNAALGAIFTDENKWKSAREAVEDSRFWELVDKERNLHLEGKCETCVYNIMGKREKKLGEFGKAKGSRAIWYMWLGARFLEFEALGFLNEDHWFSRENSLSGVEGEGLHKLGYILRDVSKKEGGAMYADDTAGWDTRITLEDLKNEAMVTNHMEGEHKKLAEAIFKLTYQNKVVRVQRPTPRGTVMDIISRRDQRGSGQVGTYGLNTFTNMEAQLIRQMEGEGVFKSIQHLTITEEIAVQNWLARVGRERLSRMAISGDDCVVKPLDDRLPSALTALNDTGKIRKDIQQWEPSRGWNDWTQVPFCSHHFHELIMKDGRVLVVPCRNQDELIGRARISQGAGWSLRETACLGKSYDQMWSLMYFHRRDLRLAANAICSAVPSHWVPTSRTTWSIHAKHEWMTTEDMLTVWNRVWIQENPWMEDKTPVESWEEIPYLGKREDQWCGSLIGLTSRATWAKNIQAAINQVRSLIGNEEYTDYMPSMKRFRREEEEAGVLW
Sequence of Luciferin 4-monooxygenase (P08659 whole entry): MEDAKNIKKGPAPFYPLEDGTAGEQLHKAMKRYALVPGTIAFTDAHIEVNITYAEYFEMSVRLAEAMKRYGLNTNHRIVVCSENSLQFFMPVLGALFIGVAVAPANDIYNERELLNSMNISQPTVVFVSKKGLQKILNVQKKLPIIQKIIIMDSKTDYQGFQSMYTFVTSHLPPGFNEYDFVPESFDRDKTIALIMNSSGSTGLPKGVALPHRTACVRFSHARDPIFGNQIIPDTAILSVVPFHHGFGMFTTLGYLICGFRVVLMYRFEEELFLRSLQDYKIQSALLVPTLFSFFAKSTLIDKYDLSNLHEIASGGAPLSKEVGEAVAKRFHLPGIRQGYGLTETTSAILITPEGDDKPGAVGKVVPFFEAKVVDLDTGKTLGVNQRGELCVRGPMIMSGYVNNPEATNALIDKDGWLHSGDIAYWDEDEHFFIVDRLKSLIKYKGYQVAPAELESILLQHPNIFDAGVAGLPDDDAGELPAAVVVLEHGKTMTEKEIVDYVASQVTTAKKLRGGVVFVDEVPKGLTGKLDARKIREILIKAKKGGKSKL

Turning to `CC1=C(CC[C@@H](C)CO)O[C@H]2C[C@H]3[C@@H]4CC[C@H]5C[C@@H](O)CC[C@]5(C)[C@H]4CC(=O)[C@]3(C)[C@@H]12`, the EC50 in [1] was > 150 µM (inactive); in [2], 0.383 µM (active); in assay [3], > 180 µM (inactive); in assay [4], > 150 µM (inactive).

As for `Cc1nn2c(-c3ccncc3)nnc2c2ccccc12`, in assay [5], the IC50 was 5.15 µM (active).

Consider `O=C(/C(=N/N=C/c1ccc(O)c(O)c1O)c1ccccc1)c1ccccc1`, for which the EC50 in [1] is 5.97 µM (active); in assay [2], 4.04 µM (active); in assay [3], > 180 µM (inactive); in assay [4], > 150 µM (inactive). In addition, the CC50 was 9.15 µM (active) in the assay with Vero and 16.6 µM (active) in assay [6]. The IC50 on Genome polyprotein is 50.1 µM (active).

For the molecule `Cc1cccc(OCC(=O)Nc2ccc(C(=O)NCc3cccnc3)cc2)c1`, the EC50 with BJ [7] is 8.97 µM (inconclusive); in assay [8], > 150 µM (not active); with BJ [9], 17.3 µM (active); with BJ [10] it was > 150 µM (not active); in the assay on BJ [11], > 150 µM (inconclusive).

With `CCSc1nnc(NC(=O)C2CC2c2ccccc2)s1` (centres undefined), the EC50 in assay [12] and in [14] was > 112 µM (not active) each time. In addition, the IC50 (in assay [13]; in the assay with HEK293) was > 67.5 µM (inactive) throughout.

`CCOc1cccc(C(=O)NC2=NCCS2)c1`: the IC50 (in assay [13]; in the assay with HEK293) was > 67.5 µM (inactive) throughout.

`CN(C)/C=C(/C(=O)c1ccc(Cl)c(Cl)c1)c1nnnn1-c1ccccc1`: the IC50 (in [13]; in the assay with HEK293) was > 67.5 µM (inactive) each time.

`CC(C)(C)c1ccc(Cc2nnc(S)nc2O)cc1`: the EC50 in assay [1] is 9.48 µM (active); in assay [2], 0.368 µM (active); in [3], 20.2 µM (active); in [4], > 160 µM (inactive).

By EC50 is commonly meant the concentration that produces a half-maximal response. The IC50 is the concentration that gives 50% inhibition. The CC50 is the concentration that lowers cell viability or growth by half.
